US6846492B2, “Use of phenylethylamine derivatives for the antimicrobial treatment of surfaces” (Ciba Specialty Chemicals Corporation, priority 2000, dated 2005)
Converted amounts (≈) assume the structure as drawn. Where a name gives a salt, the structure may show the parent alone. Read-outs that look alike come from different tables or passages of the source.

How the values were obtained:
[1] = tested on: Staphylococcus hominis DMS 20328 (= SH); experiment: MIC determination in microtiter plates, Staphylococcus hominis; type: cell-based; settings: for MIC [ppm] SH: Tables 2a/2b, ≦20% growth, optical density 620 nm, tested at 120, 60, 30, 15, 7.5 and 3.5 ppm, some approximate; for MIC: read-out: MIC [ppm] Staphylococcus hominis DSM 20328
Description: (§1) Determination of the Minimum Inhibitory Concentration (MIC Value) in Microtiter Plates
(§2) Casein/soybean flour peptone bouillon for the preparation of pre-cultures of the test bacteria and yeast.
(§3) Mycological slant agar for the pre-culture of moulds
(§4) The test substances are pre-dissolved in dimethyl sulfoxide (DMSO) and tested in a dilution series of 1:2.
(§5) Bacteria and yeast are cultured overnight in CASO bouillon, the mould is cultured overnight on mycological slant agar, and washed off with 10 ml of 0.85% sodium chloride solution (+0.1% TritonX-100).
(§6) All the test organisms are adjusted to an organism count of 1−5×10^6 CFU/ml using 0.85% sodium chloride solution.
(§7) The test substances are pre-pipetted into microtiter plates in an amount of 8 μl per well.
(§8) Pre-diluted organism suspensions are diluted 1:100 in CASO bouillon (bacteria and yeast) or Sabouraud 2% glucose bouillon (mould) and are added in an amount of 192 μl per well to the test substances.
(§9) The test batches are incubated for 48 hours at 37° C. (bacteria and yeast) or for 5 days at 28° C. (mould).
(§10) After incubation, the growth is evaluated by reference to the turbidity of the test batches (optical density) at 620 nm in a microplate reader.
(§11) One microtiter plate is used for each test organism and substance concentration. All the substances are tested in duplicate.

[2] = tested on: Escherichia coli NCTC 8196 (= EC); experiment: MIC determination in microtiter plates, Escherichia coli; type: cell-based; settings: 48 hours at 37° C.; for MIC [ppm] EC: Tables 2a/2b, ≦20% growth, optical density 620 nm, some approximate values
Description: as §1, §2, §3, §4, §5, §6, §7, §8, §9, §10, §11

[3] = tested on: Pseudomonas aeruginosa CIP A-22 (= PA); experiment: MIC determination in microtiter plates, Pseudomonas aeruginosa; type: cell-based; settings: Tables 2a/2b, 48 hours at 37° C., ≦20% growth, optical density 620 nm, some approximate values
Description: as §1, §2, §3, §4, §5, §6, §7, §8, §9, §10, §11

[4] = tested on: Candida albicans ATCC 10231 (= CA); experiment: MIC determination in microtiter plates, Candida albicans; type: cell-based; settings: for MIC [ppm] CA: Tables 2a/2b, ≦20% growth, optical density 620 nm, some approximate values; for MIC: read-out: MIC [ppm] Candida albicans ATC 10231
Description: as §1, §2, §3, §4, §5, §6, §7, §8, §9, §10, §11

[5] = tested on: Aspergillus niger ATCC 6275 (= AN); experiment: MIC determination in microtiter plates, Aspergillus niger; type: cell-based; settings: 5 days at 28° C.; for MIC [ppm] AN: Tables 2a/2b, ≦20% growth, optical density 620 nm, some approximate values; for MIC: ATCC6275, 120 h, Table 2c, read-out: MIC [ppm] Aspergillus niger ATCC 6275
Description: as §1, §2, §3, §4, §5, §6, §7, §8, §9, §10, §11

[6] = tested on: Staphylococcus aureus ATCC 9144; experiment: MIC determination in microtiter plates, Staphylococcus aureus; type: cell-based; settings: read-out: MIC [ppm] Staphylococcus aureus ATCC 9144
Description: as §1, §2, §3, §4, §5, §6, §7, §8, §9, §10, §11

[7] = tested on: Staphylococcus epidermidis ATCC 12228; experiment: MIC determination in microtiter plates, Staphylococcus epidermidis; type: cell-based; settings: read-out: MIC [ppm] Staphylococcus epidermidis ATCC 12228
Description: as §1, §2, §3, §4, §5, §6, §7, §8, §9, §10, §11

[8] = tested on: Corynebacterium xerosis ATCC 373; experiment: MIC determination in microtiter plates, Corynebacterium xerosis; type: cell-based; settings: read-out: MIC [ppm] Corynebacterium xerosis ATCC 373
Description: as §1, §2, §3, §4, §5, §6, §7, §8, §9, §10, §11

[9] = tested on: Propionibacterium acnes ATCC11829; experiment: MIC determination in microtiter plates, Propionibacterium acnes; type: cell-based; settings: Cutibacterium acnes, read-out: MIC [ppm] Propionibacterium acnes ATCC11829
Description: as §1, §2, §3, §4, §5, §6, §7, §8, §9, §10, §11

[10] = tested on: Actinomyces viscosum DSM 43329; experiment: MIC determination in microtiter plates, Actinomyces viscosum; type: cell-based; settings: read-out: MIC [ppm] Actinomyces viscosum DSM 43329
Description: as §1, §2, §3, §4, §5, §6, §7, §8, §9, §10, §11

[11] = tested on: Streptococcus sobrinus DSM 20742; experiment: MIC determination in microtiter plates, Streptococcus sobrinus; type: cell-based; settings: read-out: MIC [ppm] Streptococcus sobrinus DSM 20742
Description: as §1, §2, §3, §4, §5, §6, §7, §8, §9, §10, §11

[12] = tested on: Enterococcus hirae ATCC 10541; experiment: MIC determination in microtiter plates, Enterococcus hirae; type: cell-based; settings: read-out: MIC [ppm] Enterococcus hirae ATCC 10541
Description: as §1, §2, §3, §4, §5, §6, §7, §8, §9, §10, §11

[13] = tested on: Streptococcus mutans ATCC 25175; experiment: MIC determination in microtiter plates, Streptococcus mutans; type: cell-based; settings: read-out: MIC [ppm] Streptococcus mutans ATCC 25175
Description: as §1, §2, §3, §4, §5, §6, §7, §8, §9, §10, §11

[14] = tested on: Porphyromonas gingivalis DSM 20709; experiment: MIC determination in microtiter plates, Porphyromonas gingivalis; type: cell-based; settings: read-out: MIC [ppm] Porphyromonas gingivalis DSM 20709
Description: as §1, §2, §3, §4, §5, §6, §7, §8, §9, §10, §11

[15] = tested on: Epidermophyton floccosum DSM 10709; experiment: MIC determination in microtiter plates, Epidermophyton floccosum; type: cell-based; settings: DSM10709, 120 h, read-out: MIC [ppm] Epidermophyton floccosum DSM 10709
Description: as §1, §2, §3, §4, §5, §6, §7, §8, §9, §10, §11

[16] = tested on: Trichophyton rubrum DSM 4167; experiment: MIC determination in microtiter plates, Trichophyton rubrum; type: cell-based; settings: DSM4167, 120 h, read-out: MIC [ppm] Trichophyton rubrum DSM 4167
Description: as §1, §2, §3, §4, §5, §6, §7, §8, §9, §10, §11

[17] = tested on: Selenomonas artemidis ATCC 43528; experiment: MIC determination in microtiter plates, Selenomonas artemidis; type: cell-based; settings: Centipeda artemidis, ATCC43528; Table 2c; 48 hours at 37° C.; read-out: MIC [ppm] Selenomonas artemidis ATCC 43528
Description: as §1, §2, §3, §4, §5, §6, §7, §8, §9, §10, §11

[18] = tested on: Trichophyton mentagrophytes ATCC 9533; experiment: MIC determination in microtiter plates, Trichophyton mentagrophytes; type: cell-based; settings: ATCC9533, 120 h, Table 2c, 5 days at 28° C., read-out: MIC [ppm] Trichophyton mentagrophytes ATCC 9533
Description: as §1, §2, §3, §4, §5, §6, §7, §8, §9, §10, §11

[19] = DSM20328, Table 2c, 48 hours at 37° C.
[20] = ATCC10231, Table 2c, 48 hours at 37° C.
[21] = ATCC9144, Table 2c, 48 hours at 37° C.
[22] = ATCC12228, Table 2c, 48 hours at 37° C.
[23] = ATCC373, Table 2c, 48 hours at 37° C.
[24] = DSM20742, Table 2c, 48 hours at 37° C.
[25] = ATCC10541, Table 2c, 48 hours at 37° C.
[26] = ATCC25175, Table 2c, 48 hours at 37° C.
[27] = DSM20709, Table 2c, 48 hours at 37° C.

NCCc1cc(OCc2ccccc2)c(OCc2ccccc2)c(OCc2ccccc2)c1 (as salt: hydrochloride)
melting point: 130 °C

C=CCCOc1cc(CCN)cc(OCCC=C)c1OCCC=C [Compound 94]
MIC [ppm] SH ([1]; 48 hours at 37° C.): 60 ppm
MIC [ppm] EC [2]: 60 ppm
MIC [ppm] PA [3]: >120 ppm
MIC [ppm] CA ([4]; 48 hours at 37° C.): 120 ppm
MIC [ppm] AN [5]: >120 ppm

NCCc1cc(OCC(=O)c2ccccc2)c(OCC(=O)c2ccccc2)c(OCC(=O)c2ccccc2)c1 [Compound 97]
MIC [ppm] SH ([1]; 48 hours at 37° C.): >120 ppm
MIC [ppm] EC [2]: >120 ppm
MIC [ppm] PA [3]: >120 ppm
MIC [ppm] CA ([4]; 48 hours at 37° C.): >120 ppm
MIC [ppm] AN [5]: >120 ppm

Cc1ccc(C(=O)COc2cc(CCN)cc(OCC(=O)c3ccc(C)cc3)c2OCC(=O)c2ccc(C)cc2)cc1 [Compound 98]
MIC [ppm] SH ([1]; 48 hours at 37° C.): 30 ppm
MIC [ppm] EC [2]: 30 ppm
MIC [ppm] PA [3]: >120 ppm
MIC [ppm] CA ([4]; 48 hours at 37° C.): >120 ppm
MIC [ppm] AN [5]: >120 ppm

NCCc1cc(OCC(=O)c2ccc(F)cc2)c(OCC(=O)c2ccc(F)cc2)c(OCC(=O)c2ccc(F)cc2)c1 [Compound 99]
MIC [ppm] SH ([1]; 48 hours at 37° C.): 60 ppm
MIC [ppm] EC [2]: 60 ppm
MIC [ppm] PA [3]: >120 ppm
MIC [ppm] CA ([4]; 48 hours at 37° C.): >120 ppm
MIC [ppm] AN [5]: >120 ppm

CCCCCCCCCCCCOc1ccc(CCN)cc1OC [Compound 100, 1-Amino-2-(4-dodecyloxy-3-methoxyphenyl)ethane]
MIC [1, 19]: 2 µg/mL (≈ 5.96 µM)
MIC [4, 20]: 2 µg/mL (≈ 5.96 µM)
MIC [5]: 2 µg/mL (≈ 5.96 µM)
MIC [6, 21]: 25 µg/mL (≈ 74.5 µM)
MIC [7, 22]: 13 µg/mL (≈ 38.7 µM)
MIC [8, 23]: 6 µg/mL (≈ 17.9 µM)
MIC ([9]; ATCC11829, Table 2c, 48 hours at 37° C.): 50 µg/mL (≈ 149 µM)
MIC ([10]; DSM43329, Table 2c, 48 hours at 37° C.): 25 µg/mL (≈ 74.5 µM)
MIC [11, 24]: 6 µg/mL (≈ 17.9 µM)
MIC [12, 25]: 25 µg/mL (≈ 74.5 µM)
MIC [13, 26]: 6 µg/mL (≈ 17.9 µM)
MIC [14, 27]: 25 µg/mL (≈ 74.5 µM)
MIC ([15]; Table 2c, 5 days at 28° C.): 3 µg/mL (≈ 8.94 µM)

CCCCCCCCCCCCOc1ccc(CCN)cc1 [Compound 101, 1-Amino-2-(4-dodecyloxyphenyl)ethane]
MIC [1, 19]: 8 µg/mL (≈ 26.2 µM)
MIC [4, 20]: 50 µg/mL (≈ 164 µM)
MIC [5]: 1 µg/mL (≈ 3.27 µM)
MIC [6, 21]: 13 µg/mL (≈ 42.6 µM)
MIC [7, 22]: 13 µg/mL (≈ 42.6 µM)
MIC [8, 23]: 6 µg/mL (≈ 19.6 µM)
MIC [11, 24]: 13 µg/mL (≈ 42.6 µM)
MIC [12, 25]: 50 µg/mL (≈ 164 µM)
MIC [13, 26]: 6 µg/mL (≈ 19.6 µM)
MIC [14, 27]: 25 µg/mL (≈ 81.8 µM)
MIC ([16]; Table 2c, 5 days at 28° C.): 13 µg/mL (≈ 42.6 µM)
MIC ([15]; Table 2c, 5 days at 28° C.): 3 µg/mL (≈ 9.82 µM)

CCCCCCOc1ccc(CCN)cc1OCCCCCC [Compound 102, 1-Amino-2-(3,4-dihexyloxyphenyl)ethane]
MIC ([1]; DSM20328, 48 h): 4 µg/mL (≈ 12.4 µM)
MIC ([2]; NCTC8196, Table 2c, read-out: MIC [ppm] Escherichia coli NCTC 8196): 4 µg/mL (≈ 12.4 µM)
MIC ([4]; ATCC10231, 48 h): 4 µg/mL (≈ 12.4 µM)
MIC ([6]; ATCC9144, 48 h): 13 µg/mL (≈ 40.4 µM)
MIC ([7]; ATCC12228, 48 h): 6 µg/mL (≈ 18.7 µM)
MIC ([8]; ATCC373, 48 h): 6 µg/mL (≈ 18.7 µM)
MIC ([9]; ATCC11829, 48 h): 13 µg/mL (≈ 40.4 µM)
MIC ([10]; DSM43329, 48 h): 13 µg/mL (≈ 40.4 µM)
MIC ([11]; DSM20742, 48 h): 6 µg/mL (≈ 18.7 µM)
MIC ([12]; ATCC10541, 48 h): 13 µg/mL (≈ 40.4 µM)
MIC ([13]; ATCC25175, 48 h): 3 µg/mL (≈ 9.33 µM)
MIC ([14]; DSM20709, 48 h): 2 µg/mL (≈ 6.22 µM)
MIC [17]: 25 µg/mL (≈ 77.8 µM)
MIC [18]: 25 µg/mL (≈ 77.8 µM)
MIC [16]: 25 µg/mL (≈ 77.8 µM)
MIC [15]: 6 µg/mL (≈ 18.7 µM)
